Several values for one entry are separate records, joined by “and”; a condition that tells them apart may be missing. Equal values may be shown once.
Key:
Format in all cases: in vivo, human
[1] = tested on: patients with non-alcoholic fatty liver disease; experiment: NAFLD patients: BMI, liver parameters (GGT, AST, ALT) and liver ultrasound grade, intravenous vs oral UDCA; parameters: GGT / AST / ALT: unit not given here; settings: n = 50; for Liver Ultrasound - G: echographic fatty liver grade 0-3; for BMI / ALT / AST / GGT: mean±SD
Procedure: Two groups of patients (each group consisting of 50 patients N=50 as disclosed in Table -1) with non-alcoholic fatty liver disease are taken and standardized with the diet of 1300 calories/day (30% proteins, 30% carbohydrates and 40% fat). The first group of patients was treated with 50 mg/kg/day UDCA orally for first two months (500 mg capsules swallowed after meals on average of 2-3 capsules after breakfast, 3-4 capsules after lunch and 3-4 capsules after dinner). The second group of patients was treated with intravenous schedule of UDCA at a dose of 3500 mg each other day (every 48 hours) for a total of 24 intravenous sessions. The lab examinations were performed at time T0 (beginning of the study) and time T1 (end of second month treatment). Each patient of the two groups was submitted to standard echo graphic classification as follows: • Grade 0: No fatty liver • Grade 1 (Mild): Mild diffuse increase in the echogenicity of liver parenchyma or increased hepatorenal contrast with normal diaphragm and intrahepatic vessel borders. • Grade 2 (Moderate): Moderate diffuse increase in the echogenicity of liver parenchyma and increased hepatorenal contrast with slight impairment of diaphragm and intrahepatic vessel borders. • Grade 3 (Severe): In addition to moderate steatosis there was no visualization of posterior portion of the right lobe of liver, intrahepatic vessel borders and diaphragm. Values were presented as mean± standard deviation for quantitative variable and percentages for categorical variables. The two groups were compared by student’s t-test for quantitative variable and chi-square for the categorical variables. Changes from baseline to 12 weeks were compared by paired t-test within each group. Wilcoxon test was used for rating variable comparison before and after treatment in each group.

[2] = tested on: patients with non-alcoholic fatty liver disease; experiment: NAFLD patients: liver biopsy histology, histology activity index (HAI) score; parameters: scale not given here; settings: individual patients 1-4
Description: A. Histology Examination: Only four patients in each group has accepted to undergo the liver biopsy (LB) before and after the treatment with intravenous UDCA and oral UDCA.

[3] = tested on: patients with non-alcoholic fatty liver disease; experiment: NAFLD patients: liver elastography (stiffness, kPa)
Description: B. Elastography in Liver: Ultrasound imaging plays a major role in the diagnosis, monitoring and therapeutic decisions of chronic liver diseases. It has many clinical indications: morphological examination of the liver parenchyma and assessment of the risk of chronic liver disease by investigating for signs of dysmorphism and/or portal hypertension; detecting and characterizing liver lesions; monitoring local treatments and assessment of treatment response. Different levels of fibrosis are assessed using a histological score. The most widely used is the METAVIR score, which incorporates five stages of fibrosis: • F0 (no fibrosis), • F1 (portal fibrosis without septa: minimal fibrosis), • F2 (portal fibrosis with a few septa: moderate fibrosis or clinically significant fibrosis), • F3 (septal fibrosis with many septa but no cirrhosis: severe fibrosis) and F4 (cirrhosis). Staging liver fibrosis in patients with chronic liver disease is essential for patient management as it allows: • 1) To identify the severity of the liver damage in order to decide whether or not to start treatment (chronic viral liver disease) to avoid progression to cirrhosis when the fibrosis becomes significant ( ≥F2); • 2) To assess the progression or regression of liver fibrosis during treatment; • 3) To institute specific monitoring to screen for and treat complications (HCC, Esophageal varices) in patients suffering from cirrhosis and even severe fibrosis ( ≥F3). Conventional ultrasound cannot differentiate accurately the different liver fibrosis stages. Existing tools to assess liver fibrosis include liver biopsy (LB), which is invasive, and other non-invasive methods. The main non-invasive method to assess liver fibrosis is based on a physical parameter that measures the tissue elasticity and is called Elastography. It can replace subjective palpation and is intended to image the mechanical properties of tissues and more particularly their stiffness. The Elastography methods are based on a common approach: measurement of deformation induced in a tissue by a force. This technique uses an external mechanical device or an internal acoustic radiation force (ARFI and SWE) to induce shear waves in the tissue to be explored. The diagnostic action mechanism is based on shear wave, which is generated by an external mechanical impulse and whose speed is measured by an ultrasound one-dimensional probe. The one-dimensional probe (3.5 MHz) is mounted along the axis of an electro-dynamic transducer (vibrator). In this way it is possible to define the liver stiffness by measuring the velocity of elastic shear waves in the liver parenchyma generated by the mechanical impulse. The propagation velocity is directly related to the stiffness of the medium, defined by the Young modulus. […] The elasticity is expressed in kPa (kilopascals) and is measured at depth ranging from 25 to 65 mm in a 1 x4 cm area: the assessed liver volume is therefore two hundred times greater than the volume examined in a liver biopsy (LB). The obtained values range from 2.5 kPa to 75 kPa. Mean liver elasticity in “normal” subject is 5.81±1.54 and 5.23±1.59 kPa respectively for men and women.

[4] = tested on: patients with non-alcoholic fatty liver disease; experiment: NAFLD patients: gastrointestinal side effects, oral vs intravenous UDCA
Procedure: The first group of patients was treated with 50 mg/kg/day UDCA orally for first two months (500 mg capsules swallowed after meals on average of 2-3 capsules after breakfast, 3-4 capsules after lunch and 3-4 capsules after dinner). The second group of patients was treated with intravenous schedule of UDCA at a dose of 3500 mg each other day (every 48 hours) for a total of 24 intravenous sessions. The lab examinations were performed at time T0 (beginning of the study) and time T1 (end of second month treatment). Each patient of the two groups was submitted to standard echo graphic classification as follows: • Grade 0: No fatty liver • Grade 1 (Mild): Mild diffuse increase in the echogenicity of liver parenchyma or increased hepatorenal contrast with normal diaphragm and intrahepatic vessel borders. • Grade 2 (Moderate): Moderate diffuse increase in the echogenicity of liver parenchyma and increased hepatorenal contrast with slight impairment of diaphragm and intrahepatic vessel borders. • Grade 3 (Severe): In addition to moderate steatosis there was no visualization of posterior portion of the right lobe of liver, intrahepatic vessel borders and diaphragm.

[5] = tested on: patients with biliary colicky pain due to radiolucent gallstones; experiment: Dissolution of gallbladder transparent stones and colicky pain, intravenous vs oral UDCA; settings: for patients with gall stones dissolution by echographic evaluation: n = 10
Procedure: 20 patients were recruited aged 35 years to 65 years with sudden burst of biliary colicky pain due to radiolucent gallstones, diameter 0.3 to […] and altered liver enzymes. Some patients are also […] complaining of quite an intense pain with nausea and vomiting but without fever, negative inflammation markers (ESR, CRP) and slight leukocytosis, no rebound tenderness at the gallbladder manual exploration. […] were administered with 3500 mg of UDCA every 12 hours for 6 days from the cubital vein; the very first infusion at the admission was added with 20 mg hyoscine-N-butyl bromide and 75 mg diclofenac as the patients are distressed by excruciating pain.

[6] = intravenous, 3500 mg every 48 hours, 24 sessions, T0
[7] = intravenous, 3500 mg every 48 hours, 24 sessions, T1 (end of second month)
[8] = oral, 50 mg/kg/day for two months, T0
[9] = oral, 50 mg/kg/day for two months, T1 (end of second month)
[10] = oral, 50 mg/kg/day for two months
[11] = oral group, 0.7 g/kg oral UDCA for three months

## C[C@H](CCC(=O)O)[C@H]1CC[C@H]2[C@@H]3[C@@H](O)C[C@@H]4C[C@H](O)CC[C@]4(C)[C@H]3CC[C@]12C [UDCA, ursodeoxycholic acid]
[1]; [6]
  Liver Ultrasound - G: 3±2
  ALT: 78.05±5.52
  AST: 65.54±4.56
  GGT: 19.52±5.82
[1]; [7]
  Liver Ultrasound - G: 1±0
  ALT: 52.6±5.65
  AST: 44.56±5.52
  BMI: 26.25±6.2 kg/m^2
  GGT: 16.77±7.76
[1]; [8]
  Liver Ultrasound - G: 3±2
  ALT: 76.48±4.95
  AST: 63.25±5.43
  GGT: 22.7±6.43
[1]; [9]
  Liver Ultrasound - G: 2±1
  ALT: 74.32±5.58
  AST: 59.43±3.39
  BMI: 27.67±4.2 kg/m^2
  GGT: 20.83±7.56
[1]; intravenous, 3500 mg every 48 hours, 24 sessions, T0 (beginning of the study)
  BMI: 29.06±4.6 kg/m^2
[1]; oral, 50 mg/kg/day for two months, T0 (beginning of the study)
  BMI: 28.18±3.8 kg/m^2
[2]; intravenous administration, T0
  HAI score: Fibrosis: 3 (2×) and 4 (2×)
  HAI score: Intralobular: 0
  HAI score: Periportal +/- bridging: 3 and 2 and 1 (2×)
  HAI score: Portal inflammation: 3 (2×) and 2 (2×)
[2]; intravenous administration, T1
  HAI score: Fibrosis: 2 and 1 (3×)
  HAI score: Intralobular: 0
  HAI score: Periportal +/- bridging: 1 and 0 (3×)
  HAI score: Portal inflammation: 1 and 0 (2×) and 2
[2]; oral administration, T0
  HAI score: Fibrosis: 4 (3×) and 3
  HAI score: Intralobular: 0
  HAI score: Periportal +/- bridging: 1 (2×) and 3 and 2
  HAI score: Portal inflammation: 3 (2×) and 2 (2×)
[2]; oral administration, T1
  HAI score: Fibrosis: 3 (2×) and 2 (2×)
  HAI score: Intralobular: 0
  HAI score: Periportal +/- bridging: 1
  HAI score: Portal inflammation: 2 (3×) and 1
[3]; METAVIR score F ≥3, intravenous administration, T0
  liver stiffness by elastography (mean ± SD): 20.2±5.7 kPa
[3]; METAVIR score F ≥3, intravenous administration, T1
  liver stiffness by elastography (mean ± SD): 9.9±5.6 kPa
[3]; METAVIR score F ≥3, oral administration, T0
  liver stiffness by elastography (mean ± SD): 19.9±7.1 kPa
[3]; METAVIR score F ≥3, oral administration, T1
  liver stiffness by elastography (mean ± SD): 12.5±6.9 kPa
[3]; METAVIR score F ≥4, intravenous administration, T0
  liver stiffness by elastography (mean ± SD): 25.3±6.5 kPa
[3]; METAVIR score F ≥4, intravenous administration, T1
  liver stiffness by elastography (mean ± SD): 18.5±5.9 kPa
[3]; METAVIR score F ≥4, oral administration, T0
  liver stiffness by elastography (mean ± SD): 23.6±6.8 kPa
[3]; METAVIR score F ≥4, oral administration, T1
  liver stiffness by elastography (mean ± SD): 19.7±5.8 kPa
[4]; intravenous, 3500 mg every 48 hours, 24 sessions
  local or systemic side effects during and after administration: No local or systemic side effects were noted
[4]; intravenous, compared with the capsules to be swallowed
  tolerability and compliance: tolerated and preferred in terms of compliance
[4]; [10]
  bloating, share of the patients: 20%
  colicky pain as side effect: moderate colicky pain
  diarrhoea, share of the patients: 38%
  nausea, share of the patients: 15%
  reduced appetite, share of the patients: 10%
[5]; intravenous 3500 mg every 12 hours for 6 days, 20 patients, first week
  adverse effects of parenteral treatment: no adverse effects
[5]; intravenous group, 3500 mg twice a week for 3 months
  patients with gall stones dissolution by echographic evaluation: 7 patients
[5]; oral UDCA group, the remaining patients
  average stones volume reduction: less than 30%
[5]; [11]
  patients in whom colicky pain reappeared during the first 40 days: 4 patients out of 10
  patients with gall stones dissolution by echographic evaluation: 3 patients
[5]; parenteral group, the remaining 3 patients
  reduction of the sludging concretions and overall stones volume compared with pre-treatment imaging: more than 50%

Reference: US20230016551A1, “METHOD FOR ADMINISTRATION OF URSODEOXYCHOLIC ACID” (SHILPA MEDICARE LIMITED, priority 2020, published 2023)
